The values that follow come from patent US20070232577A1, “Synthetic pentacyclic triterpenoids and derivatives of betulinic acid and betulin” (Advanced Life Sciences, Inc., priority 2006, published 2007).

One data set has as its system SK-MEL-2 (melanoma). The data set is described as follows: MTS cell viability assay, SK-MEL-2. The settings on record: Homo sapiens, SK-MEL-2, 72 h, read-out: IC50 SK-MEL-2.
For the next data set, the system named is MCF-7 (breast carcinoma). Description: MTS cell viability assay, MCF-7. Type of data set: cell-based. The settings on record: Homo sapiens, MCF7, 72 h. The method, then:
(§1) All treatments were performed in triplicate. […] Cells were incubated at 37° C. for 72 h.

In a further data set the test system is Daoy. The data set is described as follows: Caspase activation assay, Daoy. Type of data set: cell-based. The method, then: All treatments were performed in duplicate. […] Cells were incubated at 37° C. for 8 h. Caspase assay reagent (per 96-well plate) was prepared according to manufacturer's instructions (Homogeneous Caspases Assay, fluorometric, Roche) by combining 6.3 mL Incubation Buffer with 0.7 mL of Substrate Stock Solution. Caspase assay reagent (70 μL) was added to each well; the plate was gently shaken by hand for 15-20 seconds and incubated at 37° C. for 4 h.
Fluorescent emission was measured at 535 nm on a plate reader using the “homogeneous caspase” program (excitation Wavelength=490 nm, emission wavelength=535 nm). Duplicate wells for each treatment were averaged following background (no cells) subtraction (emission 535 nm value from all experimental emission 535 nm values) for each drug concentration.
DMSO treatment represented baseline caspase activation in the absence of drug. The percent changes in caspase activity were plotted on the y-axis for each drug treatment.

A further data set concerns LN-229 (glioblastoma). The data set is described as follows: MTS cell viability assay, LN-229. Type of data set: cell-based. The settings on record: Homo sapiens, 72 h. The method, then:
as §1
In general terms: Formazan colour is commonly taken as a measure of viable cells.

Data set [1] has as its system OVCAR-3 (ovarian carcinoma). The data set is described as follows: MTS cell viability assay, OVCAR-3. Type of data set: cell-based. The settings on record: Homo sapiens, 72 h. The method, then:
as §1

The subject of the next data set is HT-29 (colon carcinoma). Description: MTS cell viability assay, HT-29. Type of data set: cell-based. The settings on record: Homo sapiens, 72 h. Here is the method: as §1
The next data set deals with A-375 (melanoma). The data set is described as follows: MTS cell viability assay, A-375. Type of data set: cell-based. The settings on record: Homo sapiens, 72 h. The method, then:
as §1

For a further data set, the system named is Daoy (glioblastoma). Description: MTS cell viability assay, Daoy.

In brackets after ≈: the same amount, converted by molar mass.

Description for Daoy (glioblastoma): (§2) Cells were plated, the evening before treatment, for each treatment on 96-well plates (1×10^4 cells/well) in 100 μL volume per well. Drug solutions were prepared by diluting each test compound in DSMO (10 mM) with the appropriate cell growth media for each individual cell line, or in “Universal Media” if several cell lines were to be assayed in parallel, immediately prior to cell treatment. Universal Media consisted of 5 mL sodium pyruvate (100×liquid stock, CellGro), 5 mL glucose (100×, 45% liquid stock, CellGro), 5 mL Penicillin/Streptomycin (100×liquid stock, CellGro), 10 mL sodium bicarbonate (50×liquid stock, CellGro), 25 mL Fetal Calf Serum, 1.25 mL insulin (4 mg/mL, Gibco) and 449 mL RPMI media with 2 mM glutamine for a total volume of 500 mL. Cells were treated by aspirating media from each well and adding 80 μL of each drug solution to the attached cells. All treatments were performed in triplicate. Growth media (80 μL) were added to 3 blank wells (no cells) to measure background from the growth media Growth media alone (no DMSO or test compond) was added to 2 wells containing cells to measure the baseline MTS activity and vehicle (DMSO) control solutions were also included to monitor basal toxicity from DMSO. Cells were incubated at 37° C. for 72 h. MTS reagent (per 96-well plate) were prepared by combining 2 mL of MTS working solution (Cell Titer AQueous Non-Radioactive Cell Proliferation Assay, Promega, cat#G1112), 100 μL of 0.92 mg/mL phenazine methosulfate/Dulbecco's PBS and 2.1 mL growth media. MTS reagent (40 μL) were added to each well and incubated at 37° C. for 1.5 to 4 h. Plates were gently shaken by hand until solution in each well appeared homogenous. Absorbances at 490 nm were measured on a plate reader at multiple time points following the addition of MTS reagent for each plate. Triplicate absorbance (490 nm) measurements were averaged following background (no cell) subtraction for each drug concentration. Percent Cell Viability was calculated for each drug concentration using the following equation: {[Absorbances(drug treated)]/[Absorbances(DMSO treated)]}×100%
(§3) Percent viability (y-axis) was plotted against drug concentration (x-axis) and the resulting graph was used to determine the 50% inhibitory concentration (IC50) for each drug.
Description for SK-MEL-2 (melanoma): as §2, §3

As usually defined, the IC50 is the concentration needed to halve the response being measured. Consider `C=C(C)[C@@H]1CC[C@]2(COC(=O)CBr)CC[C@]3(C)[C@H](CC[C@@H]4[C@@]5(C)CC[C@H](O)C(C)(C)[C@@H]5CC[C@]43C)[C@@H]12` [Compound 13, ((1R,3aS,5aR,5bR,7aR,9S,11aR,11bR,13aR,13b R)-9-hydroxy-5a,5b,8,8,11a-pentamethyl-1-(prop-1-en-2-yl)icosahydro-1H-cyclopenta[a]chrysen-3a-yl)methyl 2-bromoacetate], for which the IC50 with SK-MEL-2 (melanoma) came to 33 µg/mL (≈ 58.5 µM); in the data set on MCF-7 (breast carcinoma), 45 µg/mL (≈ 79.8 µM); with LN-229 (glioblastoma), 6 µg/mL (≈ 10.6 µM); in data set [1], 6 µg/mL (≈ 10.6 µM); in the data set on HT-29 (colon carcinoma) it was 10 µg/mL (≈ 17.7 µM); in the data set on A-375 (melanoma) it was 29 µg/mL (≈ 51.4 µM). In the data set with Daoy (glioblastoma) (Homo sapiens, Daoy, 72 h, read-out: IC50 Daoy), the IC50 came out at 1.4 µg/mL (≈ 2.48 µM). In addition, the “caspase activation in Daoy” value in the data set on Daoy (Daoy, percent change versus DMSO) is recorded as “approx. 200%”. For the same compound, the “selectivity of apoptosis activation, Daoy versus SK-MEL-2 (in words)” value with Daoy (caspase assay, Daoy in preference to SK-MEL-2) is reported as “selectively activate apoptosis in Daoy in preference to SK-MEL-2”. Further, the “selectivity of cytotoxicity for Daoy (in words)” value in the data set on Daoy (glioblastoma) (MTS assay, Daoy versus other cell lines) is on record as “robust cytotoxic activity in Daoy but not in SK-MEL-2”.
